Data reported in patent US10040838B2, “CRHR2 peptide agonists and uses thereof” (JANSSEN PHARMACEUTICA NV, priority 2008, dated 2018).

Key:
[1] = molecular target: T1, human CRHR2 (Homo sapiens, UniProt Q13324); experiment: Radioligand binding, membranes of SK-N-MC cells transfected with human CRHR2, [125I]-anti-sauvagine-30
T1 construct: expressed in transfected cells
T1 sequence (Q13324 1-411): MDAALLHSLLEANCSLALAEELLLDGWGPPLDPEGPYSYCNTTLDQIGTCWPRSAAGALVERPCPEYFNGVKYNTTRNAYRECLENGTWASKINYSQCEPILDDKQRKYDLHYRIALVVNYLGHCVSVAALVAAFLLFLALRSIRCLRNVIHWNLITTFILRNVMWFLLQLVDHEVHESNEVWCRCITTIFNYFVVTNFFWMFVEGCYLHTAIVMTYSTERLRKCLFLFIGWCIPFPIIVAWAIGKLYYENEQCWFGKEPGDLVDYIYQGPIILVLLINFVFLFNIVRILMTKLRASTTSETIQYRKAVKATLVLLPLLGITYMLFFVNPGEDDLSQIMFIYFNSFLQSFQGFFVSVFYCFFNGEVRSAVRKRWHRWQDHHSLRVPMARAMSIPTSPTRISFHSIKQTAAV
Experimental: The binding profile of h-SCP (SEQ ID NO:1) at CRHR2 was determined in radioligand binding studies in a membrane preparation of SK-N-MC cells stably transfected with human CRHR2 using [^125I]-anti-sauvagine-30 as the radiolabel. […] The solution was then homogenized with a Polytron tissue grinder at a setting of 10 and 7×3 s (Brinkmann Instruments, Westbury, N.Y.). The homogenate was centrifuged at 4° Celsius at 800×g for 5 min with the pellet being discarded. The supernatant was re-centrifuged at 26,892×g for 25 min at 4° Celsius with the final pellet being re-suspended in assay buffer. All binding assays were conducted in 96-well Multiscreen GF/B filter plates (Millipore, Billericay, Mass., U.S.A.) that were pre-soaked in assay buffer with 0.3% PEI for 1 hour. […] The bound radioactivity was separated by filtration using a Multiscreen Resist manifold (Millipore Corp., Billerica, Mass., U.S.A). The filters were washed three times with ice-cold PBS at pH 7.5 and radioactivity retained on the filters was quantified by its liquid scintillation measured by a TopCount counter (Packard BioScience, Boston, Mass., U.S.A). All experiments were performed in triplicate. Data from individual competition curves were expressed as the percentage of specific [^125I]-anti-sauvagine-30 or)[^125I]-([…])-sauvagine binding (B) within each experiment.

[2] = molecular target: T1, human CRHR2; experiment: cAMP assay in h-CRHR2 transfected SK-N-MC cells; type: cell-based
In short: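 Intracellular cAMP was read by competition with [125I]-cAMP for an anti-cAMP antibody after HCl lysis of human CRHR2-transfected SK-N-MC cells. Cells had been exposed to peptide, 1 pM to 10 μM, for 60 min at 37 °C in IBMX (10 μM) buffer. A50 and pA50 came from Hill fits; Log DR was computed against h-SCP within each batch.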

[3] = molecular target: T2, CRHR1 (Homo sapiens, UniProt P34998); experiment: Radioligand binding CRHR1 assay, [125I]-(Tyr0)-sauvagine; set-up: expressed in transfected cells; host or cells: cell membranes
T2 sequence (P34998 24-415): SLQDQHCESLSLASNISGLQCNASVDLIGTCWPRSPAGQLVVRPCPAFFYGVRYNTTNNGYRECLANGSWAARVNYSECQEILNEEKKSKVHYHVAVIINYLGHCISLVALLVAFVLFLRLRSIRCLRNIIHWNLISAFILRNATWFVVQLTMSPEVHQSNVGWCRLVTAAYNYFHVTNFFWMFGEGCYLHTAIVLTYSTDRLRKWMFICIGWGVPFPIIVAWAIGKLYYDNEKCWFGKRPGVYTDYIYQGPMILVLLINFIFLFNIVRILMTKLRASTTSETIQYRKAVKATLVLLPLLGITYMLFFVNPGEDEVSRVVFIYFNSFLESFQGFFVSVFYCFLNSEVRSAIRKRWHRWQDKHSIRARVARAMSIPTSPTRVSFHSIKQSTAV
Experimental: The solution was then homogenized with a Polytron tissue grinder at a setting of 10 and 7×3 s (Brinkmann Instruments, Westbury, N.Y.). The homogenate was centrifuged at 4° Celsius at 800×g for 5 min with the pellet being discarded. […] All binding assays were conducted in 96-well Multiscreen GF/B filter plates (Millipore, Billericay, Mass., U.S.A.) that were pre-soaked in assay buffer with 0.3% PEI for 1 hour. […] The bound radioactivity was separated by filtration using a Multiscreen Resist manifold (Millipore Corp., Billerica, Mass., U.S.A). The filters were washed three times with ice-cold PBS at pH 7.5 and radioactivity retained on the filters was quantified by its liquid scintillation measured by a TopCount counter (Packard BioScience, Boston, Mass., U.S.A). All experiments were performed in triplicate.

[4] = Table 15, slope of competition curve

CC[C@H](C)[C@H](NC(=O)[C@@H](NC(=O)[C@H](CC(=O)O)NC(=O)[C@H](CC(C)C)NC(=O)[C@H](CC(C)C)NC(=O)[C@H](CC(C)C)NC(=O)[C@H](CCCNC(=N)N)NC(=O)[C@H](CC(N)=O)NC(=O)[C@H](CC(N)=O)NC(=O)[C@H](C)NC(=O)[C@H](C)NC(=O)[C@H](CCC(N)=O)NC(=O)[C@H](CCC(N)=O)NC(=O)[C@H](CCCCN)NC(=O)[C@H](CCC(=O)O)NC(=O)[C@H](CCCCN)NC(=O)[C@H](CCC(=O)O)NC(=O)[C@H](CCC(N)=O)NC(=O)[C@H](CCCCN)NC(=O)[C@H](CCC(=O)O)NC(=O)[C@@H](NC(=O)[C@H](CCC(=O)O)NC(=O)[C@@H](NC(=O)[C@H](CCSC)NC(=O)[C@H](CCCCN)NC(=O)[C@H](CCCNC(=N)N)NC(=O)[C@H](CC(C)C)NC(=O)[C@H](CC(C)C)NC(=O)[C@H](Cc1c[nH]cn1)NC(=O)[C@H](N)Cc1ccccc1)[C@@H](C)CC)[C@@H](C)CC)[C@@H](C)O)C(N)=O [SEQ ID NO: 118, FHLLRKMIEIEKQEKEKQQAANNRLLLDTI-NH2]
Ki [1]: 16.6 nM
CRHR2 nH [1, 4]: 1.15 ± 0.12
Kb [2]: 15.1 nM
Ki [3]: 1550 nM
CRHR1 nH [3, 4]: 1.00 ± 0.49
